pIC50: −log10 of the molar value. Like-named read-outs stand apart in the source and are kept apart here.

For one test, the system named is A-549. In words: MTT cytotoxic assay, A-549 cells. In kind it is cell-based. As to conditions: Homo sapiens, A549, cancer cell line, 48 h, read-out: Inhibitory concentration (IC50) A-549. The procedure: (§1) At the end of this time, 20 µL of the MTT solution (5 mg/mL) was added to each well and incubated for 4 h in the dark at 37 °C and 5% CO2. The supernatant was decanted, and the resulting formazan was dissolved in isopropyl alcohol with 4 mM HCl solution and was read in a UV/Vis reader at 590 nm. The results obtained were plotted, and the IC50 was obtained through linear regression.
On the technique in general: Tetrazolium assays rely on reduction of a dye to a coloured formazan, in cell work by metabolically active cells.

For another test, the system named is Mix cells. Put plainly: MTT cytotoxic assay, mixed culture of microglia. It is filed as cell-based. As to conditions: normal cells, 48 h, read-out: Inhibitory concentration (IC50) Mix cells. The procedure: (§2) At the end of this time, 20 µL of the MTT solution (5 mg/mL) was added to each well and incubated for 4 h in the dark at 37 °C and 5% CO2. The supernatant was decanted, and the resulting formazan was dissolved in isopropyl alcohol with 4 mM HCl solution and was read in a UV/Vis reader at 590 nm. The results obtained were plotted, and the IC50 was obtained through linear regression. […]
(§3) of the incubation, an MTT assay was performed to determine the viability of cells under treatment. Each bar in the chart indicates the percentage means and standard error of the mean. […]
(§4) healthy endothelial cells, VERO cells, and mixed culture of microglia, employing perezone (dotted) as a control. Cells from each line were incubated without control and with increased concentrations of the studied compounds during 48 h (n= 8). At the end of the incubation, an MTT assay was performed to determine the viability of cells under treatment. Each bar in the chart indicates the percentage means and […]
(§5) (1 picture or pasted object on this page, not shown here)

In another test the test system is Rat endothelial cells. Put plainly: MTT cytotoxic assay, healthy endothelial cells. It is filed as cell-based. To be noted: Endothelial cell, normal cell line, 48 h, read-out: Inhibitory concentration (IC50) Rat endothelial cells. The procedure:
as §2, §3, §4, §5

A further test relates to HELA. In words: MTT cytotoxic assay, Hela cells. It is filed as cell-based. To be noted: Homo sapiens, cancer cell line, 48 h, read-out: Inhibitory concentration (IC50) HELA. The procedure:
as §1

The subject of a further test is MDA-MB-231. Put plainly: MTT cytotoxic assay, MDA-MB-231 cells. It is filed as cell-based. As to conditions: Homo sapiens, cancer cell line, 48 h, read-out: Inhibitory concentration (IC50) MDA-MB-231. The protocol:
as §1

The target in test [1] is T1, PARP-1 enzyme (Homo sapiens, UniProt P09874). Put plainly: PARP-1 inhibition assay (colorimetric assay kit).
Text: Absorbances were obtained at 450 nm using a UV/Vis spectrophotometer E max Precision microplate reader (Molecular Devices, San Jose, CA, USA).
For a further test, the system named is VERO. Put plainly: MTT cytotoxic assay, VERO cells. It is filed as cell-based. As to conditions: Chlorocebus sabaeus, normal cell line, 48 h, read-out: Inhibitory concentration (IC50) VERO. The protocol:
as §2, §3, §4, §5

For the next test, the system named is MCF-7. In words: MTT cytotoxic assay, MCF-7 cells. To be noted: Homo sapiens, MCF7, cancer cell line, 48 h, read-out: Inhibitory concentration (IC50) MCF-7. It is filed as cell-based. The protocol: as §1
Test [2] has as its target T1, PARP-1 enzyme. On the set-up: purchased BPS Bioscience Inc. 80580. To be noted: previously demonstrated; read-out: IC50 (PARP-1 inhibition) of perezone and natural derivatives; cited from earlier work.

T1 sequence (P09874 whole entry): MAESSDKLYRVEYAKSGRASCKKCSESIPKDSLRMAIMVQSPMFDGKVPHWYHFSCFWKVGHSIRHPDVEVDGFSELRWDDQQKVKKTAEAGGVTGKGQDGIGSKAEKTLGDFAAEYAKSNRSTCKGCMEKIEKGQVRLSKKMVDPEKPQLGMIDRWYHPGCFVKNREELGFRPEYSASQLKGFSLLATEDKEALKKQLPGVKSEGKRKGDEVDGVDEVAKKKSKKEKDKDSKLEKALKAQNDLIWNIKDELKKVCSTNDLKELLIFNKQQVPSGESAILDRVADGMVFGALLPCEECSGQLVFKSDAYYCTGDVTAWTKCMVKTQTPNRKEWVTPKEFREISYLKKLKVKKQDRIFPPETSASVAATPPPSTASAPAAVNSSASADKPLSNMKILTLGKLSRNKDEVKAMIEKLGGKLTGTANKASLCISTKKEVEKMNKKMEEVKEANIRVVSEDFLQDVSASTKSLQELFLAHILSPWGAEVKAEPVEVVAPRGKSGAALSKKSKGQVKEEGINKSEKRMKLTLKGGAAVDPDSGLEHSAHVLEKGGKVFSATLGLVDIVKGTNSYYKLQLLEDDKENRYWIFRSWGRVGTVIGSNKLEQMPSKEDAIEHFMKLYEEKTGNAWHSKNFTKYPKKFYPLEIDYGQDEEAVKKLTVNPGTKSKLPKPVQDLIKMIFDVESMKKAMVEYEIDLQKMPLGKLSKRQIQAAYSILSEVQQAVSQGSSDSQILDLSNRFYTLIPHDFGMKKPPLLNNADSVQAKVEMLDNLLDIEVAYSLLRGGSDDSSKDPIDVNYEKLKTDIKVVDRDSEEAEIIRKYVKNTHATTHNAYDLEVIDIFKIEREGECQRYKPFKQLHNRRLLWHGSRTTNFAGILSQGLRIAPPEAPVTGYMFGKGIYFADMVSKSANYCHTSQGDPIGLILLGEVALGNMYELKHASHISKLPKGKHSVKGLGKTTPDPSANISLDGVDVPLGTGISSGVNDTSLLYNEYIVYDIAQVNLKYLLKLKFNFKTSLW

In the case of `CC(C)=CCCC(C)C1=C(O)C(=O)C(C)=C(Sc2ccc(F)cc2CO)C1=O` (centres unmarked) [Compound 9, 2-((4-fluoro-2-(hydroxymethyl)phenyl)thio)-5-hydroxy-3-methyl-6-(6-methylhept-5-en-2-yl)cyclohexa-2.5-diene-1,4-dione], the pIC50 was below 3.70 with A-549; 3.75 in the test on Mix cells; below 3.70 with Rat endothelial cells; 3.70 in the test with HELA; 3.84 with MDA-MB-231; 6.50 against PARP-1 enzyme [1]. Further, the pIC50 in the test with VERO was 3.73; in the test on MCF-7, 4.08.

In the case of `CC(C)=CCC[C@@H](C)C1=C(O)C(=O)C(C)=CC1=O` [Compound 1, perezone], the pIC50 with A-549 is 3.84; in the test with Mix cells it was 4.20; in the test with Rat endothelial cells it was below 3.70; on PARP-1 enzyme [2], 3.74; with HELA it was 4.37; in the test on MDA-MB-231 it was 5.11. The pIC50 was 3.51 in the test on VERO and 4.27 in the test with MCF-7.

With `CC(C)=CCC[C@@H](C)C1=C(O)C(=O)C(C)=C(O)C1=O` [Compound 3, hydroxyperezone], the pIC50 at PARP-1 enzyme [2] is 3.49.

Consider `CC(C)=CCCC(C)C1=C(O)C(=O)C(C)=C(Sc2ccc(CC(=O)O)cc2)C1=O` (centres unmarked) [Compound 10, 2-(4-((hydroxy-2-methyl-5-(6-methylhept-5-en-2-yl)-3,6-dioxocyclohexa-1,4-dien-1-yl)thio)phenyl)acetic acid], for which the pIC50 with A-549 was below 3.70; in the test with Mix cells, below 3.70; in the test on Rat endothelial cells it was below 3.70; in the test with HELA, below 3.70; in the test with MDA-MB-231, below 3.70; against PARP-1 enzyme [1] it was 6.49. Further, the pIC50 with VERO was 3.77; in the test with MCF-7, below 3.70.

Regarding `C/C=C(/C)C(=O)OC1=C([C@H](C)CCC=C(C)C)C(=O)C=C(C)C1=O` [Compound 2, perezone angelate], the pIC50 at PARP-1 enzyme [2] was 5.28.

(Values after article PMC10815500, “Design of Two New Sulfur Derivatives of Perezone: In Silico Study Simulation Targeting PARP-1 and In Vitro Study Validation Using Cancer Cell Lines” (International Journal of Molecular Sciences, 2024).)
